This note sets out measurements from patent publication US10030027B2, “Soluble guanylate cyclase stimulators” (MERCK SHARP & DOHME CORP., priority 2015, dated 2018).

By Ki is commonly meant a dissociation constant, usually derived from enzyme kinetics or from competition with a known ligand.

In test [1] the test system is hypoxia-induced pulmonary hypertension rat. The test can be described thus: Acute efficacy in hypoxia-induced pulmonary hypertension in rat following intratracheal administration. The format is in vivo. An excerpt: Acute Efficacy in Hypoxia-Induced Pulmonary Hypertension in Rat Following Intratracheal Administration Charles River Sprague-Dawley (CD) male rats weighing approximately 350 g were implanted with HD-S21 dual pressure telemetry transmitters (Data Sciences International (DSI)) into the pulmonary artery and femoral artery. This transmitter enables simultaneous measurement of both pulmonary and systemic hemodynamic parameters in the same animal. After a 7-10 day post-operative recovery period, animals were subjected to a normobaric hypoxic (10% oxygen) environment using a Higher Peak Mountain Air Generator (MAG-10) connected to a modified rodent cage via a fitted inlet port. Oxygen (at 10%), temperature, humidity, and CO2 were controlled within normal range and animals were maintained on a 12 hour light-dark cycle with ad libitum access to food and water. After two weeks exposure to 10% O2 hypoxic environment, systolic pulmonary arterial pressure readings increased from 25 mmHg to greater than 50 mmHg. Using a 48 hour baseline average, animals with readings between 50-110 mmHg (standard deviation of less than 10 mmHg) and minimal changes in systolic systemic blood pressure were enrolled for study. Animals were utilized for up to 2 studies per week for 4 weeks with a minimum of 2 days washout between doses of test agent. Compound or vehicle was administered intra-tracheally under light isoflurane anesthesia (5% in oxygen; flow rate 2.0 L/min for 3 minutes). Once anesthetized, rats were placed on an angled intubation stand in supine position and the trachea visualized using a small laryngoscope. Animals then received either 0.5 mL/kg of vehicle or 0.5 mL/kg vehicle containing compound intra-tracheally delivered via microsprayer by use of a Penn-Century Microsprayer® needle 3″ (Model IA-1B-GP) attached to a 1 mL high pressure syringe (Penn Century-Model B-SYR-PL1000) (Penn-Century, Philadelphia, Pa.). The Microsprayer® tip was inserted into the trachea up to the point at which the bend in the needle is close to the tip of the snout, which positions the tip of the Microsprayer® in front of the carina (bifurcation of trachea at the bronchi). After dose delivery the animal is placed on its back in the home cage for recovery. Hemodynamic measurements were continuously recorded and readings consolidated to hourly moving averages. Each animal received a vehicle on Day 1 followed by vehicle or test agent on Day 2. Change from vehicle baseline was calculated by subtracting the hourly Day 1 vehicle response from the hourly Day 2 response and treatment group data was expressed as mean±SEM. Decreases of systolic blood pressure (SBP) and systolic pulmonary arterial pressure (PAP) were measured at a particular IT dose (mpk milligrams per kilogram) for the following Example compounds.

The next test has as its target sGC α1/β1 heterodimer (Homo sapiens (Human), UniProt Q02108+Q02153). The test can be described thus: Cell-based sGC functional assay (cyclic GMP assay for sGC activator: CASA assay). Particulars: CHO-K1/sGC cells; for Emax: CHO-K1, activity expressed as percentage of compound A (standard), read-out: % Activation; for EC50: inflection point, 4P fit, read-out: IP; for % Activation: activity expressed as percentage of compound A (standard). More on the design: % Activation: concentration or dose not given beside the values. The method, boiled down:
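CHO-K1 cells stably expressing human sGC α1/β1 were pre-incubated 30 min at 25° C with or without 1 μM DETA-NO, then exposed to compound for 1 hr at 37° C with 0.5 mM IBMX and 2.5% DMSO final. Intracellular cGMP was measured by HTRF, expressed as % of reference sGC-HDA maximum; inflection point and maximum fold induction came from 4-parameter fits.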

Test [2] addresses human recombinant sGC enzyme (Homo sapiens (Human), UniProt Q02108+Q02153). The test can be described thus: Size Exclusion Chromatography (SEC) competition binding assay using [3H] Ex-77B as the radioligand. The conditions noted are these: [3H] Ex-77B radioligand, 24 hours at 37° C. The method, boiled down:
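Recombinant human sGC binding measured by competition against tritiated Ex-77B radioligand, with non-specific binding defined by 1 μM unlabeled Ex-77B.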
On the technique in general: In gel filtration, larger molecules generally elute earlier.

For test [3], the system named is Spontaneously hypertensive rats (SHR). As to the kind of experiment: Acute efficacy in spontaneously hypertensive rats (SHR). The format is in vivo, rat. An excerpt:
Acute Efficacy in Spontaneously Hypertensive Rats (SHR)
Spontaneously hypertensive rats (SHR, male, Charles River) were implanted with DSI TA11PA-C40 telemetry device (Data Sciences, Inc., St. Paul, Minn.) under isoflurane or ketamine/metomidine anesthesia. The telemetry unit catheter was inserted into the descending aorta via the femoral artery and the telemetry device was implanted subcutaneously in the left flank area. Animals were allowed to recover from surgery for 14 days before the start of any studies. Blood pressure, heart rate, and activity signals from conscious, freely moving rats were recorded continuously for 30 seconds every 10 minutes. On the day prior to administration of compound, a single oral dose of vehicle (10% transcutol/20% Cremophor/70% water) was administered to all animals to establish baseline control data. The blood pressure lowering efficacy of compound (PO) or vehicle was evaluated following a single oral gavage. Data were collected as hourly averages, and changes in blood pressure were calculated by subtracting control baseline data on an hourly basis. Animals were maintained on normal diet with a 12 hour light-dark cycle.
Maximum peak decreases of systolic blood pressure (SBP) in SHR at a particular P.O. dose (mpk milligrams per kilogram) for the following Example compounds are provided.

In the case of `CC(C)(Cc1coc(C2(C)C(=O)Nc3nc(-c4nn(Cc5ccccc5F)c5cc(F)ccc45)nc(N)c32)n1)C(=O)O` (stereo not drawn) [Example 63A, 3-(2-{4-amino-2-[6-fluoro-1-(2-fluorobenzyl)-1H-indazol-3-yl]-5-methyl-6-oxo-6,7-dihydro-5H-pyrrolo[2,3-d]pyrimidin-5-yl}oxazol-4-yl)-2,2-dimethylpropanoic acid], the “Category: decrease in SBP (at minimum decrease in PAP of ≥15 mmHg)” value (shortened to “Category: decrease in SBP”) in test [1] (Dose IT 0.01 mpk) was “A (decrease in SBP 0-5 mmHg)”. Also, on sGC α1/β1 heterodimer, the Emax stood at 72% and the EC50 is 104 nM.

On to `CC(C)(Cc1csc([C@]2(C)C(=O)Nc3nc(-c4nn(Cc5ccccc5F)c5ncccc45)nc(N)c32)n1)C(=O)O` [Example 90B, (S)-3-(2-{4-amino-2-[1-(2-fluorobenzyl)-1H-pyrazolo[3,4-b]pyridin-3-yl]-5-methyl-6-oxo-6,7-dihydro-5H-pyrrolo[2,3-d]pyrimidin-5-yl}-1,3-thiazol-4-yl)-2,2-dimethylpropanoic acid], for which, in test [2], the Ki was determined as 0.063 nM. Further, the “Category: maximum peak decrease of systolic blood pressure (SBP) in SHR” value (shortened to “Category: maximum peak decrease”) in test [3] (Dose P.O. 1 mpk) is listed as “B (decrease in SBP in SHRs 25-40 mmHg)”. Moreover, at sGC α1/β1 heterodimer, the Emax is 112% and the EC50 came out at 129 nM.

On to `CC(C)(Cc1csc([C@]2(C)C(=O)Nc3nc(-c4nn(CCCC(F)(F)F)c5nc(Cl)ccc45)nc(N)c32)n1)C(=O)O` [Example 89B, (S)-3-(2-{4-amino-2-[6-chloro-1-(4,4,4-trifluorobutyl)-1H-pyrazolo[3,4-b]pyridin-3-yl]-5-methyl-6-oxo-6,7-dihydro-5H-pyrrolo[2,3-d]pyrimidin-5-yl}-1,3-thiazol-4-yl)-2,2-dimethylpropanoic acid], for which the inhibitory constant (Ki) in test [2] stood at 0.343 nM. The “Category: maximum peak decrease” value in test [3] (Dose P.O. 3 mpk) is given as “B (decrease in SBP in SHRs 25-40 mmHg)”. Also, at sGC α1/β1 heterodimer, the Emax was determined as 108% and the EC50 was 442 nM.

With `CC(C)(C)CCCn1nc(-c2nc(N)c3c(n2)NC(=O)[C@@]3(C)c2ccc(CCC(=O)O)cc2)c2ccc(Cl)cc21` [Example 52B, (S)-3-(4-{4-amino-2-[6-chloro-1-(4,4-dimethylpentyl)-1H-indazol-3-yl]-5-methyl-6-oxo-6,7-dihydro-5H-pyrrolo[2,3-d]pyrimidin-5-yl}phenyl)propanoic acid], the Ki in test [2] amounted to 0.413 nM. The “Category: maximum peak decrease” value in test [3] (Dose P.O. 3 mpk) is given as “A (decrease in SBP in SHRs 5-25 mmHg)”. For the same compound, at sGC α1/β1 heterodimer, the Emax came to 109% and the EC50 was determined as 504 nM.

Consider `CC(Cc1ccc(C2(C)C(=O)Nc3nc(-c4nn(CCC(F)(F)C(F)(F)F)c5cc(Cl)ccc45)nc(N)c32)cc1)C(=O)O` (single isomer, unassigned) [Example 34AA, 3-(4-{4-amino-2-[6-chloro-1-(3,3,4,4,4-pentafluorobutyl)-1H-indazol-3-yl]-5-methyl-6-oxo-6,7-dihydro-5H-pyrrolo[2,3-d]pyrimidin-5-yl}phenyl)-2-methylpropanoic acid], for which the Ki in test [2] came out at 0.138 nM. For the same compound, the “Category: maximum peak decrease” value in test [3] (Dose P.O. 3 mpk) is listed as “A (decrease in SBP in SHRs 5-25 mmHg)”. In addition, at sGC α1/β1 heterodimer, the “% Activation” value came to 81% and the EC50 was found to be 437 nM.

Regarding `CC(C)(Cc1ccc(C2(C)C(=O)Nc3nc(-c4nn(CCC(F)(F)C(F)(F)F)c5ncccc45)nc(N)c32)cc1)C(=O)O` (stereo not drawn) [Example 9B], the Ki in test [2] came to 0.374 nM. In test [3] (Dose P.O. 3 mpk), the “Category: maximum peak decrease” value is on record as “A (decrease in SBP in SHRs 5-25 mmHg)”. Moreover, on sGC α1/β1 heterodimer, the Emax was 118% and the EC50 came out at 1370 nM.

Take `CC(Cc1ccc(C2(C)C(=O)Nc3nc(-c4nn(CCC(F)(F)C(F)(F)F)c5cc(Cl)ccc45)nc(N)c32)cc1)C(=O)O` (single isomer, unassigned) [Example 34AB, 3-(4-{4-amino-2-[6-chloro-1-(3,3,4,4,4-pentafluorobutyl)-1H-indazol-3-yl]-5-methyl-6-oxo-6,7-dihydro-5H-pyrrolo[2,3-d]pyrimidin-5-yl}phenyl)-2-methylpropanoic acid]: in test [2], the Ki came out at 0.231 nM. In addition, the “Category: maximum peak decrease” value in test [3] (Dose P.O. 1 mpk) is recorded as “A (decrease in SBP in SHRs 5-25 mmHg)”. On sGC α1/β1 heterodimer, the “% Activation” value is on record as 115% and the EC50 is 771 nM.

Consider `C[C@@]1(c2nc(C3CC3C(=O)O)cs2)C(=O)Nc2nc(-c3nn(CCC(F)(F)C(F)(F)F)c4ncccc34)nc(N)c21` (stereo partly drawn) [Example 80BA, (5S)-2-(2-{-4-amino-5-methyl-6-oxo-2-[1-(3,3,4,4,4-pentafluorobutyl)-1H-pyrazolo[3,4-b]pyridin-3-yl]-6,7-dihydro-5H-pyrrolo[2,3-d]pyrimidin-5-yl}-1,3-thiazol-4-yl)cyclopropane-carboxylic acid], for which, in test [1] (Dose IT 0.1 mpk), the “Category: decrease in SBP” value is recorded as “B (decrease in SBP 5-10 mmHg)”.

For the compound `C[C@@]1(c2nc(CC3(C(=O)O)CC3)cs2)C(=O)Nc2nc(-c3nn(CCC(F)(F)C(F)(F)F)c4ncccc34)nc(N)c21` [Example 81B, (S)-1-[(2-{4-amino-5-methyl-6-oxo-2-[1-(3,3,4,4,4-pentafluorobutyl)-1H-pyrazolo[3,4-b]pyridin-3-yl]-6,7-dihydro-5H-pyrrolo[2,3-d]pyrimidin-5-yl}-1,3-thiazol-4-yl)methyl]cyclopropane carboxylic acid], the “Category: decrease in SBP” value in test [1] (Dose IT 0.03 mpk) is “B (decrease in SBP 5-10 mmHg)”. In addition, on sGC α1/β1 heterodimer, the Emax is 110% and the EC50 worked out at 504 nM.

`CCCCn1nc(-c2nc(N)c3c(n2)NC(=O)[C@@]3(C)c2ccc(CCC(=O)O)cc2)c2ccc(Cl)cc21` [Example 38B, (S)-3-{4-[4-amino-2-(1-butyl-6-chloro-1H-indazol-3-yl)-5-methyl-6-oxo-6,7-dihydro-5H-pyrrolo[2,3-d]pyrimidin-5-yl]phenyl}propanoic acid]: in test [2], the Ki came out at 0.145 nM. In addition, the “Category: maximum peak decrease” value in test [3] (Dose P.O. 3 mpk) is “A (decrease in SBP in SHRs 5-25 mmHg)”. At sGC α1/β1 heterodimer, the Emax is 98% and the EC50 is 220 nM.

On to `CC1(c2nc(CC(=O)O)co2)C(=O)Nc2nc(-c3nn(Cc4ccccc4F)c4cc(Cl)ccc34)nc(N)c21` (stereo not drawn) [Example 51B, 2-(2-{4-amino-2-(6-chloro-1-(2-fluorobenzyl)-1H-indazol-3-yl)-5-methyl-6-oxo-6,7-dihydro-5H-pyrrolo[2,3-d]pyrimidin-5-yl}oxazol-4-yl)acetic acid], for which, in test [1] (Dose IT 0.01 mpk), the “Category: decrease in SBP” value is listed as “A (decrease in SBP 0-5 mmHg)”. In addition, on sGC α1/β1 heterodimer, the Emax is 116% and the EC50 is 485 nM.

In the case of `CCCCn1nc(-c2nc(N)c3c(n2)NC(=O)C3(C)c2nc(CC(C)(C)C(=O)O)cs2)c2cccnc21` (stereo not drawn) [Example 86A, 3-{2-[4-amino-2-(1-butyl-1H-pyrazolo[3,4-b]pyridin-3-yl)-5-methyl-6-oxo-6,7-dihydro-5H-pyrrolo[2,3-d]pyrimidin-5-yl]-1,3-thiazol-4-yl}-2,2-dimethylpropanoic acid], the Ki in test [2] came out at 0.323 nM. In test [3] (Dose P.O. 1 mpk), the “Category: maximum peak decrease” value is “A (decrease in SBP in SHRs 5-25 mmHg)”. In addition, at sGC α1/β1 heterodimer, the Emax amounted to 102% and the EC50 is 247 nM.
